# Columns and labels:
# XBP-1 mRNA splicing [1] = experiment: XBP-1 splicing assay in J774 macrophages; format: cell-based, mouse; conditions: for effect of inhibitor on LPS-induced XBP-1 splicing: LPS stimulation
# IFNβ = conditions: macrophage cell line; J. Smith et al. 2008; cited from earlier work
# XBP-1 mRNA splicing [2] = experiment: XBP-1 splicing in primary macrophages; format: cell-based, mouse
# [3] = test system: CHOP, BiP, Erdj4 and PDI expression; experiment: ER-stress target gene expression (quantitative RT-PCR) in J774 macrophages; format: cell-based, mouse; conditions: for induction of the classic ER stress downstream target genes CHOP and BiP: J774 macrophages stimulated with the substance
# Protocol: (§1) Total RNA was prepared using Trizol (Invitrogen) and cDNA synthesis with High capacity cDNA Reverse transcription kit purchased from Applied Biosystems. Quantitative RT-PCR was performed employing SYBR green fluorescent reagent on a Mx3005P® QPCR System from Strategene. The relative amounts of mRNA were calculated from the values of comparative threshold cycle by using β-actin as control.
# (§2) The ability of TLRs to activate the three branches of the ER stress response was tested. J774 macrophages were stimulated with the TLR4 and TLR2 agonists, LPS and Pam3CSK4, and IRE1α, PERK and ATF6 activation were analyzed. ATF6 activation was tested by monitoring the liberation of its cleaved fragment, and PERK and IRE1α activation by examining their phosphorylation status. […] To further examine the effects of TLR signaling on the classical. ER stress response, cells were stimulated with tunicamycin (TM), a potent pharmacologic ER-stress inducer, in the presence or absence of LPS. […] Therefore, TLRs trigger a biased ER-stress response by activating IRE1 while inhibiting the PERK and ATF6 pathways.
# ATF6 = ATF6 activation (liberation of cleaved fragment) in J774 macrophages; format: cell-based, mouse; conditions: for activation of ATF6 (cleaved fragment): J774 macrophages stimulated with the substance
# Protocol: (§3) Total cell extracts were loaded on SDS-PAGE for separation and transferred to PDVF membranes. For Western blot the following antibodies were used: anti-XBP-1s (Biolegend), anti-phospho PERK, IRE1 and phospho-JNK (Cell Signaling), ATF4, HSP90, IkappaBβ and CHOP (Santa Cruz Biotechnology), anti-ATF6α and anti proIL-1β.
# as §2
# PERK = PERK activation (phosphorylation status) in J774 macrophages; format: cell-based, mouse; conditions: J774 macrophages stimulated with the substance
# Protocol: as §3, §2
# IRE1α = IRE1α activation (phosphorylation status, immunoblot) in J774 macrophages; format: cell-based, mouse; conditions: J774 macrophages stimulated with the substance
# Protocol: as §3, §2
# [4] = test system: CHOP, PDI, WSF1 expression; experiment: ER-stress related gene expression in primary macrophages; format: cell-based, mouse
# ISG15 = ISG15 production by LPS stimulated macrophages under ER stress; format: cell-based, mouse; conditions: cells simultaneously ER-stressed with TM
# Protocol: as §1
# Therefore, it was determined whether augmenting this pathway through pharmacologic induction of an ER stress response would enhance the natural response to microbial products. […] Importantly, this finding was confirmed in primary WT and XBP-1Δ macrophages that were left untreated or pre-treated for 12 h with a low dose of TM and then stimulated with LPS for 3 h.
# IL-6 = IL-6 production by LPS stimulated macrophages under ER stress; format: cell-based, mouse
# [5] = J774 macrophages, co-treatment with TM
molecule,measurement,setting,value
"c1ccc2c(c1)[I+]c1ccccc1-2 [DPI, diphenyleneiodonium chloride]",effect of inhibitor on LPS-induced XBP-1 splicing,XBP-1 mRNA splicing [1],abolished
COc1cc(C(C)=O)ccc1O [apocynin],effect of inhibitor on LPS-induced XBP-1 splicing,XBP-1 mRNA splicing [1],abolished
C/C=C(/C)C(=O)O[C@H]1C(C)=C2[C@H]([C@@H]1OC(=O)CCCCCCC)[C@@](C)(OC(C)=O)C[C@H](OC(=O)CCC)[C@@]1(O)[C@H]2OC(=O)[C@@]1(C)O [thapsigargin],IFNβ production upon stimulation with LPS,IFNβ,increased IFNβ production
FSL1,XBP-1 splicing in TLR2 deficient macrophages,XBP-1 mRNA splicing [2],did not activate XBP-1 splicing
Pam3CSK4,induction of the classic ER stress downstream target genes CHOP and BiP,[3],"nor induction of the classic ER stress downstream target genes, CHOP and BiP, was observed"
same,activation of ATF6 (cleaved fragment),ATF6,neither activation of ATF6 or PERK
same,activation of PERK (phosphorylation status),PERK,neither activation of ATF6 or PERK
same,activation of IRE1α (slower migrating phosphorylated species),IRE1α,Clear activation
same,XBP-1 splicing in TLR2 deficient macrophages,XBP-1 mRNA splicing [2],did not activate XBP-1 splicing
same,TLR2 dampening of the ER-stress response: dependence on MyD88,[4]; primary macrophages from MyD88 deficient mice,MyD88 dependent
lipopolysaccharide [LPS],expression of the XBP-1 target genes Erdj4 or PDI,[3]; J774 macrophages,did not induce
same,induction of the classic ER stress downstream target genes CHOP and BiP,[3],"nor induction of the classic ER stress downstream target genes, CHOP and BiP, was observed"
same,"effect of co-treatment on TM induction of mRNAs including CHOP, PDI and Erdj4",[3]; [5],dramatically repressed
same,"classic ER-stress response as measured by CHOP, BiP, Erdj4 and PDI expression","[3]; J774 macrophages, experiment with or without TM",did not induce a classic ER-stress response
same,splicing of XBP-1 mRNA and production of XBP-1s protein,"XBP-1 mRNA splicing [1]; J774 macrophages, time after stimulation",detected as early as 3 hours
same,activation of ATF6 (cleaved fragment),ATF6,neither activation of ATF6 or PERK
same,effect of co-treatment on proteolytic processing of ATF6α by TM,ATF6; [5],dramatically repressed
same,activation of PERK (phosphorylation status),PERK,neither activation of ATF6 or PERK
same,activation of IRE1α (slower migrating phosphorylated species),IRE1α,Clear activation
same,activation of XBP-1 in TLR4 mutant macrophages,XBP-1 mRNA splicing [2]; macrophages from mice carrying a mutation in the signaling domain of TLR4,did not activate XBP-1
same,effect on TM-induced XBP-1 splicing,"XBP-1 mRNA splicing [2]; macrophages, TM plus LPS",increased
same,activation of XBP-1 in wild type primary macrophages,XBP-1 mRNA splicing [2]; primary macrophages from wild type (WT) mice,observed
same,induction of classic ER-stress related genes such as CHOP or PDI,[4]; XBP-1Δ macrophages or WT macrophages,no induction
tunicamycin [TM],activation of ATF6 (cleaved fragment),ATF6,induced activation of all three branches
same,amount of ISG15 produced by LPS stimulated macrophages,ISG15,dramatically and synergistically increased
same,amount of IL-6 produced by LPS stimulated macrophages,IL-6; cells simultaneously ER-stressed with TM,dramatically and synergistically increased
same,IL-6 production in primary WT macrophages,"IL-6; pre-treated 12 h with low dose of TM, then LPS 3 h",augmented IL-6 production
same,activation of PERK (phosphorylation status),PERK,induced activation of all three branches
same,activation of IRE1α (slower migrating phosphorylated species),IRE1α,induced activation of all three branches
same,induction of PDI and WSF1 in XBP-1Δ macrophages,[4]; XBP-1Δ macrophages versus WT,reduced

# Reference: patent US20120141539A1, “METHODS FOR MODULATING TOLL-LIKE RECEPTOR MEDIATED ACTIVATION OF CELLS OF THE INNATE SYSTEM BY MODULATING XBP-1 ACTIVITY” (PRESIDENT AND FELLOWS OF HARVARD COLLEGE, priority 2009, published 2012)
